Values belong to the compound of their own block, whether it stands above or below them. Ends that are not written are not given here.
Experiments:
[1] = system: cultured cerebellar Purkinje cells; assay: Basal electrophysiological properties and Ca2+ imaging in cultured cerebellar Purkinje cells; type: cell-based, mouse; details: TAPI-2 10 μM; GM6001 1 μM; GM6001 control 1 μM; mean ± SEM
Protocol: (§1) Recording and Ca^2+ imaging in cerebellar cultures. Cultures of embryonic mouse cerebellum were prepared as previously described and recordings were performed according to our previously published method (Leitges et al., Neuron 44:585-94, 2004). […]. Test pulses were delivered using negative current pulses (300-700 nA, 30-80 msec duration). LTD-inducing pairing stimuli consisted of six, 3-s-long depolarizations to 0 mV, each delivered together with a test pulse of glutamate.
(§2) Membrane currents were recorded with an Axopatch 200A amplifier, and digitized at 10 kHz for exogenous glutamate responses and 20 kHz for mEPSCs. Signals were lowpass filtered at 5 kHz (1 kHz for mEPSCs) and acquired using Axograph X software (Axograph Scientific, Sydney, Australia). Recordings in which Rinput or Rseries varied by more than 10% were excluded from the analysis. For analysis of mEPSCs, Axograph X mini analysis software was used. This detected events based on closeness of fit of the mEPSC to a sliding template. Events smaller than − ? 4 pA were discarded. A separate template was created for each recording by averaging 30 of its most unambiguous mEPSCs as selected by eye.
Bis-Fura-2 ratio imaging of intracellular free Ca^2+ in the dendritic shafts of cultured Purkinje cells was accomplished by measuring the background corrected fluorescence ratio at 340 and 380 nm excitation using a cooled CCD camera system. In these experiments, EGTA was removed from the internal saline and replaced with 100 μM bis-Fura-2.

[2] = system: Purkinje cells cultured from embryonic mouse cerebellum; assay: LTD of glutamate-evoked inward current in cultured Purkinje cells (glutamate test pulses paired with depolarizing steps); type: cell-based; details: t=40 min; TAPI-2 10 μM, GM6001 1 μM, GM6001 control compound 1 μM; n=7
Protocol: as §1, §2
Other studies have shown that LTD in Purkinje cells cultured from embryonic mouse cerebellum requires activation of mGluR1, and is expressed postsynaptically as a reduction in surface AMPA receptors (Chung et al., Science 300:1751-5, 2003; Leitges et al., Neuron 44:585-94, 2004; Linden, PNAS 98:14066-71, 2001; Matsuda et al., EMBO J. 19:2765-74, 2000; Steinberg et al., Neuron 49:845-60, 2006; Wang and Linden, Neuron 25:635-47, 2000). Here, LTD was examined using a purely postsynaptic model in which iontophoretic test pulses of glutamate are applied to voltage-clamped Purkinje cells in culture. Following a baseline recording period, LTD was induced by pairing six 3 sec long depolarizing steps to 0 mV with six glutamate test pulses. When test pulses were resumed after pairing, LTD of the glutamate-evoked inward current was evident (52±9.0% of baseline at t=40 min, n=7 cells, FIG. 6A). […]

Narp = molecular target: T1, Narp (Rattus norvegicus, UniProt P97738); assay: In vitro binding (GST pull down) with myc-Narp
T1 construct: GST-tagged GluR1-12mer (GST-G1-12mer) and myc-tagged full length Narp; made in house; host or cells: 293T cells (myc-Narp, cleared lysate); E. coli (GST fusions, pGEX-4T-2)
T1 sequence (P97738 15-432): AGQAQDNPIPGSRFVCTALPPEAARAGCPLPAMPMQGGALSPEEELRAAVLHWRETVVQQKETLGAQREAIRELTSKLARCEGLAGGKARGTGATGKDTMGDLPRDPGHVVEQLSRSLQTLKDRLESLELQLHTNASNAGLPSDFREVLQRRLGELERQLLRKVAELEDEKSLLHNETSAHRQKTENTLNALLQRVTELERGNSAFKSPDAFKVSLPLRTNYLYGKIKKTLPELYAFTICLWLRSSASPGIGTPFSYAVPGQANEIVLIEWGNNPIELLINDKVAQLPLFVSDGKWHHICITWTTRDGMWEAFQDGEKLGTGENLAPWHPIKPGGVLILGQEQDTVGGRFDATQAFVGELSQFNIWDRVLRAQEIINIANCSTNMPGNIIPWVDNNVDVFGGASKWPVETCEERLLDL
Protocol: In Vitro Binding. Polynucleotides encoding NAR fragments were subcloned into pGEX-4T-2 vector (Amersham) in the EcoRI and SalI sites. The constructs were confirmed by restriction enzyme digestion, DNA sequencing and fusion protein expression. GST-fusion proteins were purified by bacterial inoculation of one clone containing GST-fusion protein plasmid into 5 mL of LB liquid medium and cultured at 37 C overnight. Cultured bacteria was transferred into 400 mL of LB liquid medium and cultured at 30 C for 3 hours. Protein expression was induced with 5 mM IPTG and the bacteria were cultured at 30 C for another 2 hours. A bacterial pellet was collected and resuspended in 10 mL of lysis buffer (pH 7.4 PBS containing 10 mM sodium pyrophosphate, 1 mM sodium orthovanadate, 1% triton and 0.1% PMSF), sonicated for 10 seconds, 3 times at 4 C. Debris was pelleted with centrifugation at 12,000 rpm at 4 C for 10 minutes. The supernatant was incubated with Glutathione Sepharose 4B beads (Pharmacia) with agitation at 4 C for 2 hours. Beads were washed with lysis buffer+1% triton+0.1% PMSF twice; lysis buffer+PMSF twice; PBS+0.5M NaCl once; and PBS twice. The fusion protein bound beads were then used in the in vitro binding assay. Purified Narp protein preparation was accomplished by splitting 293T cells is into 100 mm culture dishes at the density of 5×10^5 cells/mL. […]

GluR1 = assay: Immunocytochemical staining of surface and internalized GluR1 in cultured hippocampal neurons; type: cell-based; details: 50 μM DFB added 5 min before DHPG stimulation
Protocol: Immunocytochemical staining. Immunocytochemical staining of heterologous cells was performed as described (Xu et al., supra). For PMA-stimulation experiments, PMA (Sigma Cat #: P8139) at (150 nM) was added 90 minutes prior to live staining. Images were viewed and captured using Nikon E800 epifluorescence microscope fitted with a Princeton Instruments CCD camera. For live staining, neurons cultured on coverslips were incubated at 10° C. with the appropriate primary antibodies at the indicated dilutions in conditioned culture medium for 20 min. They were then washed with PBS and fixed with 4% paraformaldehyde/4% sucrose in PBS for 20 min at room temperature. Cells were permeablized with 0.2% Triton X-100 in PBS for 5 min and then blocked in 10% normal goat serum in PBS for 1 hr at room temperature. If intracellular proteins were of interest, coverslips were then incubated with antibody diluted in 10% normal goat serum for 1 hr at room temperature or overnight at 4° C. Coverslips were washed with PBS and incubated with secondary antibody conjugated to Alexa488 and Alexa555 (1:500 in 10% normal goat serum, Molecular Probes Eugene, Oreg.). Coverslips were mounted using the Prolong Antifade Kit (Molecular Probes, Eugene, Oreg.). For immunocytochemistry studies, mGluR1/5 were activated using the selective agonist (S)-DHPG (Tocris Cat.# 0805) with mGluR5 allosteric potentiator DFB (Tocris Cat.#1625). Neurons were incubated with DFB (50 μM) for 5 min and then DHPG (50 μM) for an additional 5 min in neuronal incubation medium and then transferred into the original incubation medium. […] Cells were incubated at 37° C. to allow endocytosis. At indicated time points, cells were incubated with N-terminal GluR1 mouse antibody (JH 4093; 0.2 μg/100 μl; kind gift from T. […] (to block endocytosis during staining). Cells were then processed for immunofluorescent staining as described above. An acid strip protocol was employed to measure endocytosed antibody labeled GluR1 (Snyder et al., 2001). Neurons were washed with progressively cooler NIM to slow basal endocytosis. Cells were then live labeled at 10° C. with GluR1 N-terminal antibody (0.2 μg/100 μL JH4094) antibody in NIM for 20 min. After washing unbound excess antibody, cells were incubated sequentially with DFB, DHPG, and original incubation medium at 37° C., as described above. After appropriate incubation times, cells were washed with 4° C. TBS. […] Neurons were then washed with 4° C. TBS followed by processing for immunofluorescent staining as described above. All neurons were viewed and captured using UltraVIEW spinning disk confocal microscope (PerkinElmer Life Sciences, Wellesley, Mass., USA) with a Nikon Eclipse TE 200 microscope and a 63× objective (Nikon, Melville, N.Y.). Images were acquired and saved as Tiff files with a dynamic range of 65536 grey levels (16-bit binary). Image analysis was performed using Metamorph imaging software (Universal Imaging, Downingtown, Pa.). For quantification of the punctate structures (e.g. GluR1), images were thresholded by grey value to differentiate single puncta. Segments of dendrites were selected and number of puncta was calculated per […] of length dendrite. Figures show ratios of calculated mean densities (number of puncta per unit length) from treated/control. Error bars were calculated using SEM and Gaussian error propagation. n=number of measured dendrites. Significance was determined by paired Student's T-test.

[3] = system: NPR cleavage at Site A (TACE); assay: NPR cleavage assay in transfected HEK293T cells; type: cell-based, rat; details: TAPI-2 50 μM; GM6001 25 μM
Protocol: Cleavage Assay HEK293T cells were plated in OptiMEM (Invitrogen, Carlsbad, Calif.) containing 5% FBS onto 6-well dishes at a density of 4×10^5 cells/mL (2 mL/well) 1 day before transfection. Cells were transfected with NPR in pRK5 using LipofectAMINE 2000 (Invitrogen, Carlsbad Calif.). After 24 hr the medium was replaced with serum-free OptiMEM. […] Samples from each well were obtained at specific time points, immediately placed on ice, centrifuged at 15,000 g to remove cell debris, and then treated with 2% β-mercaptoethanol containing loading buffer. At the end of the time course, the cells were lysed with RIPA buffer, centrifuged to remove cell debris, and treated with 2% β-mercaptoethanol in loading buffer. Samples (20 μL of medium or lysate diluted to 1/5) were run on SDS-PAGE gels and analyzed by Western blotting.

Compound: CNC(=O)C(Cc1c[nH]c2ccccc12)NC(=O)C(CC(C)C)NC(=O)OC(C)(C)C (stereo not drawn) [GM6001 control compound]
DHPG-evoked (dendritic Ca2+ transient) [1]: 277 ± 42 nM
Depol-evoked (dendritic Ca2+ transient) [1]: 526 ± 55 nM
Resting Ca2+ [1]: 100 ± 25 nM
mEPSC 10-90% rise [1]: 1.6 ± 0.3 msec
mEPSC 50% decay [1]: 7.6 ± 0.7 ms
mEPSC amp [1]: 26 ± 6 pA
glutamate-evoked inward current after LTD induction [2]: 48±9.8 % of baseline

pull down of myc-tagged full length Narp (Narp; GST fusion proteins): pulls down Narp
Compound: GST-G1-12mer: bacteria GST-tagged GluR1-12mer (LRRQRIDISRRG; also: GST tag, end not given here)

Compound: Fc1cccc(C=NN=Cc2cccc(F)c2)c1 [DFB, 3,3′-difluorobenzaldazine]
consistency of the DHPG-evoked response (GluR1): increased the consistency of the DHPG-evoked response

Compound: CNC(=O)[C@H](Cc1c[nH]c2ccccc12)NC(=O)[C@@H](CC(=O)NO)CC(C)C [GM6001]
DHPG-evoked (dendritic Ca2+ transient) [1]: 268 ± 39 nM
Depol-evoked (dendritic Ca2+ transient) [1]: 557 ± 65 nM
Resting Ca2+ [1]: 123 ± 27 nM
mEPSC 10-90% rise [1]: 2.0 ± 0.3 msec
mEPSC 50% decay [1]: 8.0 ± 0.6 ms
mEPSC amp [1]: 25 ± 6 pA
glutamate-evoked inward current after LTD induction [2]: 106±8.4 % of baseline
PMA-stimulated cleavage at Site A / secretion of LFC-NPR into the medium [3]: inhibited

in vitro binding between GST-G1-NarI and Narp (Narp; synthetic peptide added): blocked
Compound: G1-12mer peptide: synthetic 12 amino acid GluR1 NAR1 sequence, Narp binding motif LRRQRIDISRRG (SEQ ID NO:24) (listed as Homo sapiens)

Source: patent US20090123940A1, “MOLECULES INVOLVED IN SYNAPTOGENESIS AND USES THEREFOR” (THE JOHNS HOPKINS UNIVERSITY, priority 2007, published 2009)
